Experimental data: ChEMBL document CHEMBL5352497, “Aromatic hydrazides: A potential solution for Acinetobacter baumannii infections” (Eur J Med Chem, 2023)
≈ marks a conversion by molar mass, not a printed value. Calls of active or inactive are those of the source.

Experiments:
HEK293 [1] = test: Cytotoxicity against HEK293 cells at 32 ug/ml; type: toxicity, cell-based; conditions: human, at 32 µg/mL
[2] = Hemolytic activity in mouse RBC at 8 ug/ml incubated for 1 hr; type: toxicity, cell-based, Erythrocyte; conditions: red blood cells (erythrocytes), at 8 µg/mL, read-out: Activity
HEK293 [3] = test: Cytotoxicity against HEK293 cells at 8 ug/ml; type: toxicity, cell-based; conditions: human, dose 8 µg/ml
[4] = (§1) Hemolytic activity in mouse RBC at 32 ug/ml incubated for 1 hr; type: toxicity, cell-based, Erythrocyte; conditions: red blood cells (erythrocytes), at 32 µg/mL, read-out: Activity
Acinetobacter baumannii [5] = test: Bacteriostatic activity against Acinetobacter baumannii ATCC 19606 assessed as reduction in colony forming unit incubated for 9 hrs; type: functional, organism-based
Staphylococcus aureus = test: Antibacterial activity against Staphylococcus aureus ATCC 25923; type: functional
Bacillus anthracis = test: Antibacterial activity against Bacillus anthracis Sterne F32; type: functional
Acinetobacter baumannii [6] = test: Bacteriostatic activity against Acinetobacter baumannii ATCC 19606 assessed as reduction in colony forming unit incubated for 24 hrs; type: functional, organism-based
Escherichia coli = test: Antibacterial activity against Escherichia coli MC1061; type: functional
Acinetobacter baumannii [7] = test: microbe, parasite or virus in culture; conditions: ATCC 19606
Acinetobacter baumannii [8] = test: Antibacterial activity against Acinetobacter baumannii ATCC 19606; type: functional
Erythrocyte = test: as §1; type: toxicity, cell-based; conditions: erythrocyte, 1 h, dose 32 µg/ml
Salmonella enterica = test: Antibacterial activity against Salmonella enterica ATCC 14028; type: functional
Acinetobacter baumannii [9] = test: Antibacterial activity against Acinetobacter baumannii BAA1605; type: functional
Klebsiella pneumoniae = test: Antibacterial activity against Klebsiella pneumoniae ATCC 27736; type: functional
[10] = test system: Staphylococcus epidermidis; test: Antibacterial activity against Staphylococcus epidermidis ATCC 12228; type: functional
Pseudomonas aeruginosa = test: Antibacterial activity against Pseudomonas aeruginosa ATCC 27853; type: functional
Enterobacter cloacae = test: Antibacterial activity against Enterobacter cloacae ATCC 13047; type: functional
Acinetobacter baumannii [11] = test: Antibiofilm activity against Acinetobacter baumannii ATCC 19606 assessed as inhibition of biofilm formation at 0.5 ug/ml by crystal violet assay; type: functional; design: scale not given: the % may be the effect or the level left; conditions: dose 0.5 µg/ml
Acinetobacter baumannii [12] = test: Induction of resistance development in Acinetobacter baumannii ATCC 19606 assessed as fold increase in MIC measured after 15 passages; type: functional
Acinetobacter baumannii [13] = test: Bactericidal activity against Acinetobacter baumannii ATCC 19606 assessed as reduction in colony forming unit at 1 to 4 times MIC measured after 24 hrs; type: functional, organism-based

In the case of O=C(NNc1cccc(F)c1)c1ccc2ccccc2n1, the Activity (HEK293 [1]) is reported as 40%, the hemolysis at 1 h, 8 ug/ml [2] is reported as under 10% and the Activity (HEK293 [3]) is reported as “Non-Toxic”. It also gave a hemolysis at 1 h, 32 ug/ml [4] of 20%.

For O=C(O)c1cn(C2CC2)c2cc(N3CCNCC3)c(F)cc2c1=O [CIPROFLOXACIN], the Activity (Acinetobacter baumannii [5]) was “Active”, the MIC (Staphylococcus aureus) was at most 0.063 µg/mL and the MIC (Bacillus anthracis) was 1 µg/mL (≈ 3.02 µM). For the same compound, the Activity (Acinetobacter baumannii [6]) was “Active”, the MIC (Escherichia coli) was at most 0.063 µg/mL and the hemolysis at 1 h, 8 ug/ml [2] was under 10%. For the same compound, the MIC (Acinetobacter baumannii [7]) was 2 µg/mL (≈ 6.04 µM), the MIC (Acinetobacter baumannii [8]) was 1 µg/mL (≈ 3.02 µM) and the Activity (Erythrocyte) was “Non-Toxic”. For the same compound, the MIC (Salmonella enterica) was at most 0.063 µg/mL, the MIC (Acinetobacter baumannii [9]) was 2 µg/mL (≈ 6.04 µM) and the MIC (Klebsiella pneumoniae) was at most 0.063 µg/mL. For the same compound, the MIC [10] was at most 0.063 µg/mL.

Compound COc1cccc(NNC(=O)c2ccc(F)cn2)c1 has an MIC (Staphylococcus aureus) of over 64 µg/mL, an MIC (Bacillus anthracis) of over 64 µg/mL and an MIC (Escherichia coli) of over 64 µg/mL. For the same compound, the hemolysis at 1 h, 8 ug/ml [2] was under 10%, the MIC (Pseudomonas aeruginosa) was over 64 µg/mL and the MIC (Acinetobacter baumannii [8]) was 0.5 µg/mL (≈ 1.91 µM). For the same compound, the Activity (HEK293 [3]) was “Non-Toxic”, the MIC (Enterobacter cloacae) was over 64 µg/mL and the Activity (Erythrocyte) was “Non-Toxic”. For the same compound, the MIC (Salmonella enterica) was over 64 µg/mL, the MIC (Acinetobacter baumannii [9]) was 0.5 µg/mL (≈ 1.91 µM) and the MIC (Klebsiella pneumoniae) was over 64 µg/mL. It also gave an MIC [10] of 64 µg/mL (≈ 245 µM).

O=C(NNc1ccc(Cl)cc1)c1ccc(F)cn1 showed an Activity (HEK293 [1]) of 17%, an MIC (Staphylococcus aureus) of over 64 µg/mL and an MIC (Bacillus anthracis) of over 64 µg/mL. The MIC (Escherichia coli) was 16 µg/mL (≈ 60.2 µM), the Activity (Acinetobacter baumannii [11]) was 30% and the hemolysis at 1 h, 8 ug/ml [2] was under 10%. For the same compound, the MIC (Pseudomonas aeruginosa) was over 64 µg/mL, the MIC (Acinetobacter baumannii [8]) was 1 µg/mL (≈ 3.76 µM) and the “fold change (FC)” value (Acinetobacter baumannii [12]) was 2. For the same compound, the Activity (HEK293 [3]) was “Non-Toxic”, the MIC (Enterobacter cloacae) was 16 µg/mL (≈ 60.2 µM) and the Activity (Erythrocyte) was “Non-Toxic”. The MIC (Salmonella enterica) was 64 µg/mL (≈ 241 µM), the Activity (Acinetobacter baumannii [13]) was “Active” and the MIC (Acinetobacter baumannii [9]) was at most 0.125 µg/mL. It also gave an MIC (Klebsiella pneumoniae) of 64 µg/mL (≈ 241 µM) and an MIC [10] of over 64 µg/mL.

O=C(NNc1cccc(F)c1)c1ccc(F)cn1 gave an MIC (Staphylococcus aureus) of over 64 µg/mL, an MIC (Bacillus anthracis) of over 64 µg/mL and an MIC (Escherichia coli) of 64 µg/mL (≈ 257 µM). The hemolysis at 1 h, 8 ug/ml [2] was under 10%, the MIC (Pseudomonas aeruginosa) was over 64 µg/mL and the MIC (Acinetobacter baumannii [8]) was 0.5 µg/mL (≈ 2.01 µM). For the same compound, the Activity (HEK293 [3]) was “Non-Toxic”, the MIC (Enterobacter cloacae) was over 64 µg/mL and the Activity (Erythrocyte) was “Non-Toxic”. For the same compound, the MIC (Salmonella enterica) was over 64 µg/mL, the MIC (Acinetobacter baumannii [9]) was 0.5 µg/mL (≈ 2.01 µM) and the MIC (Klebsiella pneumoniae) was over 64 µg/mL. It also gave an MIC [10] of over 64 µg/mL.

For O=C(NNc1ccc(Cl)cc1)c1ccc2ccccc2n1, the MIC (Staphylococcus aureus) was over 64 µg/mL, the MIC (Bacillus anthracis) was over 64 µg/mL and the MIC (Escherichia coli) was 16 µg/mL (≈ 53.7 µM). For the same compound, the hemolysis at 1 h, 8 ug/ml [2] was under 10%, the MIC (Pseudomonas aeruginosa) was over 64 µg/mL and the MIC (Acinetobacter baumannii [8]) was 0.5 µg/mL (≈ 1.68 µM). For the same compound, the Activity (HEK293 [3]) was “Non-Toxic”, the MIC (Enterobacter cloacae) was over 64 µg/mL and the Activity (Erythrocyte) was “Non-Toxic”. For the same compound, the MIC (Salmonella enterica) was over 64 µg/mL, the MIC (Acinetobacter baumannii [9]) was 0.5 µg/mL (≈ 1.68 µM) and the MIC (Klebsiella pneumoniae) was over 64 µg/mL. It also gave an MIC [10] of over 64 µg/mL.

With O=C(NNc1ccc(Cl)cc1)c1ccccn1 the MIC (Staphylococcus aureus) was over 64 µg/mL, the MIC (Bacillus anthracis) was over 64 µg/mL and the MIC (Escherichia coli) was 16 µg/mL (≈ 64.6 µM). It also gave a hemolysis at 1 h, 8 ug/ml [2] of under 10%, an MIC (Pseudomonas aeruginosa) of over 64 µg/mL and an MIC (Acinetobacter baumannii [8]) of 0.25 µg/mL (≈ 1.01 µM). For the same compound, the Activity (HEK293 [3]) was “Non-Toxic”, the MIC (Enterobacter cloacae) was 64 µg/mL (≈ 258 µM) and the Activity (Erythrocyte) was “Non-Toxic”. For the same compound, the MIC (Salmonella enterica) was 64 µg/mL (≈ 258 µM), the MIC (Acinetobacter baumannii [9]) was 0.25 µg/mL (≈ 1.01 µM) and the MIC (Klebsiella pneumoniae) was 64 µg/mL (≈ 258 µM). The MIC [10] was over 64 µg/mL.

O=C(NNc1ccc(Cl)cc1)c1ccccc1 gave an MIC (Staphylococcus aureus) of 64 µg/mL (≈ 259 µM), an MIC (Bacillus anthracis) of over 64 µg/mL and an MIC (Escherichia coli) of 16 µg/mL (≈ 64.9 µM). It also gave a hemolysis at 1 h, 8 ug/ml [2] of under 10%, an MIC (Pseudomonas aeruginosa) of over 64 µg/mL and an MIC (Acinetobacter baumannii [8]) of 0.25 µg/mL (≈ 1.01 µM). The Activity (HEK293 [3]) was “Non-Toxic”, the MIC (Enterobacter cloacae) was 16 µg/mL (≈ 64.9 µM) and the Activity (Erythrocyte) was “Non-Toxic”. The MIC (Salmonella enterica) was 64 µg/mL (≈ 259 µM), the MIC (Acinetobacter baumannii [9]) was 0.5 µg/mL (≈ 2.03 µM) and the MIC (Klebsiella pneumoniae) was 16 µg/mL (≈ 64.9 µM). The MIC [10] was 64 µg/mL (≈ 259 µM).

Work on COc1ccc(NNC(=O)c2ccc(F)cn2)cc1 yielded an MIC (Staphylococcus aureus) of over 64 µg/mL, an MIC (Bacillus anthracis) of over 64 µg/mL and an MIC (Escherichia coli) of over 64 µg/mL. The hemolysis at 1 h, 8 ug/ml [2] was under 10%, the MIC (Pseudomonas aeruginosa) was over 64 µg/mL and the MIC (Acinetobacter baumannii [8]) was 1 µg/mL (≈ 3.83 µM). For the same compound, the Activity (HEK293 [3]) was “Non-Toxic”, the MIC (Enterobacter cloacae) was over 64 µg/mL and the Activity (Erythrocyte) was “Non-Toxic”. For the same compound, the MIC (Salmonella enterica) was over 64 µg/mL, the MIC (Acinetobacter baumannii [9]) was 0.5 µg/mL (≈ 1.91 µM) and the MIC (Klebsiella pneumoniae) was over 64 µg/mL. It also gave an MIC [10] of over 64 µg/mL.

For O=C(NNc1ccc(Cl)cc1)c1ccco1, the MIC (Staphylococcus aureus) was 64 µg/mL (≈ 270 µM), the MIC (Bacillus anthracis) was over 64 µg/mL and the MIC (Escherichia coli) was 16 µg/mL (≈ 67.6 µM). For the same compound, the hemolysis at 1 h, 8 ug/ml [2] was under 10%, the MIC (Pseudomonas aeruginosa) was over 64 µg/mL and the MIC (Acinetobacter baumannii [8]) was 0.5 µg/mL (≈ 2.11 µM). The Activity (HEK293 [3]) was “Non-Toxic”, the MIC (Enterobacter cloacae) was 4 µg/mL (≈ 16.9 µM) and the Activity (Erythrocyte) was “Non-Toxic”. It also gave an MIC (Salmonella enterica) of 16 µg/mL (≈ 67.6 µM), an MIC (Acinetobacter baumannii [9]) of at most 0.125 µg/mL and an MIC (Klebsiella pneumoniae) of 16 µg/mL (≈ 67.6 µM). It also gave an MIC [10] of 64 µg/mL (≈ 270 µM).

For O=C(NNc1cccc(Cl)c1)c1ccccn1, the MIC (Staphylococcus aureus) was over 64 µg/mL, the MIC (Bacillus anthracis) was over 64 µg/mL and the MIC (Escherichia coli) was 4 µg/mL (≈ 16.1 µM). The hemolysis at 1 h, 8 ug/ml [2] was under 10%, the MIC (Pseudomonas aeruginosa) was over 64 µg/mL and the MIC (Acinetobacter baumannii [8]) was 2 µg/mL (≈ 8.07 µM). The Activity (HEK293 [3]) was “Non-Toxic”, the MIC (Enterobacter cloacae) was 4 µg/mL (≈ 16.1 µM) and the Activity (Erythrocyte) was “Non-Toxic”. The MIC (Salmonella enterica) was 16 µg/mL (≈ 64.6 µM), the MIC (Acinetobacter baumannii [9]) was 1 µg/mL (≈ 4.04 µM) and the MIC (Klebsiella pneumoniae) was 16 µg/mL (≈ 64.6 µM). It also gave an MIC [10] of over 64 µg/mL.
